Laboratory results reported in PMC9056950, “Synthesis and biochemical evaluation of cephalosporin analogues equipped with chemical tethers” (RSC Advances, 2020).
Converted amounts (≈) assume the structure as drawn.

How the values were obtained:
S. aureus (NCTC 6571) = tested on: T1, S. aureus (NCTC 6571); assay: microbe, parasite or virus in culture; set-up: minimum bactericidal concentration 50 on agar plates; details: Staphylococcus aureus, NCTC6571; read-out: MBC50 S. aureus (NCTC 6571)
T1 construct: NCTC 6571

S. aureus = tested on: T2, S. aureus; set-up: species or system Staphylococcus aureus NCTC 6571; broth growth inhibition, OD600, fitted MIC from dose curve, TSB, 37 C; details: 16 h; inhibitor
T2 construct: NCTC 6571
Procedure: Stock solutions of each compound were prepared in 50% DMSO/water at ×100 the final concentration. In a 96-well plate, 2 μL of the test compounds were added to each well. Each plate included the positive control (750 μg mL^−1 chloramphenicol), the negative control (50% DMSO/water) and media only wells. To each test well was then added 198 μL of the required bacteria stock (OD 0.05). E. coli assays were carried out using LB broth, S. aureus were carried out using tryptic soy broth (TSB). Plates were incubated at 37 °C and the OD600 was measured (Epoch 2 Microplate Spectrophotometer, BioTek) every 30 min over a 17 h period. Tests were carried out in triplicate, the background absorbance was removed using reference wells, and the averages were determined. Dose curves were plotting using the OD600 after 16 h growth vs. compound concentration. MICs were defined as the minimum concentration of compound at which no significant growth was observed after 16 h incubation. MIC values were determined using GraphPad Prism (version 8.3.0). The activity of 1–12 was investigated with growth assays against Staphylococcus aureus (NCTC 6571). S. aureus is a virulent Gram-positive pathogen that can cause a wide range of infections in humans.[29,30] Each compound was tested at 400–6 μM concentrations, with lower concentrations tested as required.

E. coli (BW25113) = tested on: T3, E. coli (BW25113); assay: microbe, parasite or virus in culture; set-up: minimum bactericidal concentration 50 on agar plates; details: Escherichia coli, read-out: MBC50 E. coli (BW25113)
T3 construct: BW25113

PBP4 = molecular target: T4, PBP4 (Bacillus subtilis, UniProt P32959); assay: biochemical; set-up: gene pbpE; commercial protein from Generon; fluorescent dye thermal shift assay, 500 nM PBP4 with 50 uM compound, delta Tm; details: read-out: Average DTm/°C
T4 sequence (P32959 1-451): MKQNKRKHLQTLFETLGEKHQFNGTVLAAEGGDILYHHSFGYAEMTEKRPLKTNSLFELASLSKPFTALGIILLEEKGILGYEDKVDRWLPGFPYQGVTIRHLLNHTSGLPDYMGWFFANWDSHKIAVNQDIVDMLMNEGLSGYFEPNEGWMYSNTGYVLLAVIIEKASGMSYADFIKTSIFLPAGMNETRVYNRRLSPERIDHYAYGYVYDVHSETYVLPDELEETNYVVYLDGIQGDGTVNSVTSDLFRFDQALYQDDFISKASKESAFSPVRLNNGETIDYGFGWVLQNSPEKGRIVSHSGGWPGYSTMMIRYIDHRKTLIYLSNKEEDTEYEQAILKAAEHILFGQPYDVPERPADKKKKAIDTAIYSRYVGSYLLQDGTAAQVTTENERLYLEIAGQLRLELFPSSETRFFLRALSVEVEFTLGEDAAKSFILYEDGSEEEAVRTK
Procedure: The thermal shift assay was carried out using the Protein Thermal Shift™ assay kit (Applied Biosystems). 3 μM of purified E. coli PBP3 was incubated with the β-lactam analogues at 300 μM concentration in a mixture containing the Protein Thermal Shift™ Dye. The samples were then heated in a StepOnePlus™ Real-Time PCR System from 25 to 95 °C at a rate of 1 °C min^−1. Tests were carried out in triplicate and the averages plotted as the negative first derivative vs. temperature. Reference wells, i.e. solutions consisting only of only PBP3 with dye, PBP3 only, and dye only, were used as controls. Melting temperature (Tm) values were determined with and without each compound, and the change in melting temperature (ΔTm) was obtained, Fig. 2. The thermal shift assay with PBP4 was carried out using the protocol described for PBP3, with the follow deriviatisation: 500 nM of purified Bacillus subtilis PBP4 was incubated with 50 μM of the β-lactam analogues. A thermal shift assay was used to investigate the binding of the cephalexin analogues to the therapeutic target, PBP, in vitro. This assay provides a fast and inexpensive method of detecting a ligand binding to a protein of interest. Briefly, the protein is gradually heated in the presence of a fluorescent dye that binds non-specifically to the hydrophobic surfaces. […] A change in the melting temperature (Tm) when the protein is heated in the presence of a ligand, indicates a protein–ligand interaction. […] The PBPs can be divided into two main categories: high molecular mass (HMM) and low molecular mass (LMM).[13] PBP3 was chosen as a representative HMM PBP, and PBP4 as a representative LMM PBP. Cephalexin (1) has been previously reported to show good binding affinities for both PBP3 and PBP4.[14] Penicillin (11) and cefpodoxime (12) were included as positive controls. AmpC (Uniprot ID: P00811) was purchased from Abcam plc (Cambridge, UK). PBP4 (Uniprot ID: P32959) was purchased from Generon (Slough, UK).

PBP3 = molecular target: T5, PBP3 (Escherichia coli, UniProt P0AD68); assay: thermal shift (Protein Thermal Shift dye); format: binding; details: 3 μM PBP3, 300 μM ligand, 25-95 °C at 1 °C/min; Tm increased
T5 construct: gene ftsI
T5 sequence (P0AD68 44-588): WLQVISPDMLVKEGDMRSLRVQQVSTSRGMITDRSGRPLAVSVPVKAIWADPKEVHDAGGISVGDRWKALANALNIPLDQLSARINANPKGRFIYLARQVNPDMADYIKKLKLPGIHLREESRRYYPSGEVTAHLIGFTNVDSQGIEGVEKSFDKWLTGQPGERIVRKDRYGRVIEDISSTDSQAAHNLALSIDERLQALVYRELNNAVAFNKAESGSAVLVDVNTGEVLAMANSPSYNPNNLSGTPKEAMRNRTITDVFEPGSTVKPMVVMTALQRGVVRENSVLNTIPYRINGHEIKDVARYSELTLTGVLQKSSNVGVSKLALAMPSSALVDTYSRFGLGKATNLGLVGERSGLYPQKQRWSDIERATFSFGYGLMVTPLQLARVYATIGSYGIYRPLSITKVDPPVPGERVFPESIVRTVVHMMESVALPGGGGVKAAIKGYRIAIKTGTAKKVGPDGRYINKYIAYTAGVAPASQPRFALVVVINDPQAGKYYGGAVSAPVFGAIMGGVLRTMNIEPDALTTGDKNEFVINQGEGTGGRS

Structure (SMILES)	MBC (S. aureus (NCTC 6571)) [µM]	MIC (S. aureus, best-fit) (S. aureus)	MBC (E. coli (BW25113)) [µM]	ΔTm at 50 µM (PBP4) [°C]	ΔTm (PBP3)
CC1=C(C(=O)O)N2C(=O)[C@@H](NC(=O)[C@H](NC(=O)CCCCN)c3ccccc3)[C@H]2SC1 [compound 10, (6R,7R)-7-[(2R)-2-(5-Aminopentanamido)-2-phenylacetamido]-3-methyl-8-oxo-5-thia-1-azabicyclo[4.2.0]oct-2-ene-2-carboxylic acid]	50 (≈ 22.3 µg/mL)	5.135e-05 M (≈ 22.9 µg/mL)	> 400	-0.0272	all of the analogues tested caused an increase in the Tm with PBP3
CC1=C(C(=O)O)N2C(=O)[C@@H](NC(=O)[C@H](NC(=O)CCCCCN3C(=O)C=CC3=O)c3ccccc3)[C@H]2SC1 [compound 3, (6R,7R)-7-((R)-2-(6-(2,5-dioxo-2,5-dihyrdo-1H-pyrrol-1-yl)hexanamido)-2-phenylacetamido)-3-methyl-8-oxo-5-thia-1-azabicyclo[4.2.0]oct-2-ene-2-carboxylic acid]	200 (≈ 108 µg/mL)	~ 5.580e-005 M	> 400	-0.378	all of the analogues tested caused an increase in the Tm with PBP3
CC1=C(C(=O)O)N2C(=O)[C@@H](NC(=O)[C@H](N)c3ccccc3)[C@H]2SC1 [compound 1, cephalexin]	400 (≈ 139 µg/mL)	1.89e-05 M (≈ 6.57 µg/mL)	> 400	-0.882	–
CC(=O)N[C@@H](C(=O)N[C@@H]1C(=O)N2C(C(=O)O)=C(C)CS[C@H]12)c1ccccc1 [compound 8, (6R,7R)-7-[(2R)-2-Acetamido-2-phenylacetamido]-3-methyl-8-oxo-5-thia-1-azabicyclo[4.2.0]oct-2-ene-2-carboxylic acid]	200 (≈ 77.9 µg/mL)	~ 5.897e-005 M	> 400	-0.248	all of the analogues tested caused an increase in the Tm with PBP3
CC1=C(C(=O)O)N2C(=O)[C@@H](NC(=O)[C@H](NC(=O)OC(C)(C)C)c3ccccc3)[C@H]2SC1 [compound 9, (6R,7R)-7-[(2R)-2-{[(Tert-butoxy)carbonyl]amino}-2-phenylacetamido]-3-methyl-8-oxo-5-thia-1-azabicyclo[4.2.0]oct-2-ene-2-carboxylic acid]	50 (≈ 22.4 µg/mL)	1.097e-05 M (≈ 4.91 µg/mL)	> 400	-0.809	all of the analogues tested caused an increase in the Tm with PBP3
C#CCCC(=O)N[C@@H](C(=O)N[C@@H]1C(=O)N2C(C(=O)O)=C(C)CS[C@H]12)c1ccccc1 [compound 4, (6R,7R)-3-Methyl-8-oxo-7-[(2R)-2-(pent-4-ynamido)-2-phenylacetamido]-5-thia-1-azabicyclo[4.2.0]oct-2-ene-2-carboxylic acid]	50 (≈ 21.4 µg/mL)	~ 3.501e-005 M	> 400	-0.853	all of the analogues tested caused an increase in the Tm with PBP3
COCC1=C(C(=O)O)N2C(=O)[C@@H](NC(=O)/C(=N\OC)c3csc(N)n3)[C@H]2SC1 [compound 12, cefpodoxime]	100 (≈ 42.7 µg/mL)	2.094e-05 M (≈ 8.95 µg/mL)	100 (≈ 42.7 µg/mL)	-0.695	–
CC1=C(C(=O)O)N2C(=O)[C@@H](NC(=O)[C@H](NC(=O)CCCC(=O)ON3C(=O)CCC3=O)c3ccccc3)[C@H]2SC1 [compound 6, (6R,7R)-7-[(2R)-2-{5-[(2,5-Dioxopyrrolidin-1-yl)oxy]-5-oxopentanamido}-2-phenylacetamido]-3-methyl-8-oxo-5-thia-1-azabicyclo[4.2.0]oct-2-ene-2-carboxylic acid]	200 (≈ 112 µg/mL)	8.29e-05 M (≈ 46.3 µg/mL)	> 400	-0.708	all of the analogues tested caused an increase in the Tm with PBP3
CC1=C(C(=O)O)N2C(=O)[C@@H](NC(=O)[C@H](NC(=O)CCCC(=O)O)c3ccccc3)[C@H]2SC1 [compound 7, (6R,7R)-7-[(2R)-2-(4-Carboxybutanamido)-2-phenylacetamido]-3-methyl-8-oxo-5-thia-1-azabicyclo[4.2.0]oct-2-ene-2-carboxylic acid]	200 (≈ 92.3 µg/mL)	8.144e-05 M (≈ 37.6 µg/mL)	> 400	-0.422	all of the analogues tested caused an increase in the Tm with PBP3
CC1=C(C(=O)O)N2C(=O)[C@@H](NC(=O)[C@H](NC(=O)CCCCC3CCSS3)c3ccccc3)[C@H]2SC1 (stereo partly drawn) [compound 5, (6R,7R)-7-[(2R)-2-[5-(1,2-Dithiolan-3-yl)pentanamido]-2-phenylacetamido]-3-methyl-8-oxo-5-thia-1-azabicyclo[4.2.0]oct-2-ene-2-carboxylic acid]	50 (≈ 26.8 µg/mL)	2.493e-05 M (≈ 13.4 µg/mL)	> 400	-0.464	all of the analogues tested caused an increase in the Tm with PBP3
CC1=C(C(=O)O)N2C(=O)[C@@H](NC(=O)[C@H](NC(=O)COCC(=O)NCCOCCOCCOCCOCCNC(=O)CCCCCN3C(=O)C=CC3=O)c3ccccc3)[C@H]2SC1 [compound 2, (6R,7R)-7-((R)-30-(2,5-Dioxo-2,5-dihydro-1H-pyrrol-1-yl)-4,8,25-trioxo-2-phenyl-6,12,15,18,21-pentaoxa-3,9,24-triazatriacontanamido)-3-methyl-8-oxo-5-thia-1-azabicyclo[4.2.0]oct-2-ene-2-carboxylic acid]	200 (≈ 175 µg/mL)	9.255e-05 M (≈ 81 µg/mL)	> 400	-1.95	all of the analogues tested caused an increase in the Tm with PBP3
